Data as given in patent US9938261B2, “Heterocyclic compounds and methods of use thereof” (AMBIT BIOSCIENCES CORPORATION, priority 2011, dated 2018).
Read-outs that look alike come from different tables or passages of the source.

What was measured:
CSF1R [1] = target: T1, CSF1R (Homo sapiens, UniProt P07333); assay: HEK293 CSF1R phosphorylation MSD assay; type: cell-based; set-up: expressed in transfected cells; host or cells: HEK293; settings: read-out: HEK293 pCSF1R M-CSF MSD:IC50
Method: The compounds disclosed herein were tested in a CSF1R phosphorylation assay to determine their cellular potency against CSF1R. A HEK293 cell line expressing CSF1R fused to FK506 binding protein (FKBP) as a molecular tag was generated. Inhibition of CSF1R kinase activity will prevent ligand-stimulated autophosphorylation of the CSF1R-FKBP in intact cells. Subsequent cell lysates are assayed in a sandwich ELISA employing the electrochemiluminescent Meso Scale Discovery (MSD) technology for the presence of the phosphorylated (p)CSF1R-FKBP. This assay determines the potency of compounds as CSF1R inhibitors by measuring the reduction in the amount of pCSF1R with increasing doses of compounds added to the cells prior to M-CSF stimulation.
On day one of the experiment, HEK293-CSF1R-FKPB cells, maintained in DMEM, with L-glutamine (Mediatech), 10% FBS, and 100 units/mL Penicillin/Streptomycin, were seeded at 50,000 cell/well in a volume of 100 μL per well in 96-well Cell Bind plates (Costar). The cells were cultured overnight at 37° C. under 5% CO2. To prepare the plates used in the MSD assay, a 330 nM biotin-FK506 (in TBS pH 7.2) solution was added at 30 μL per well to streptavidin-coated 96-well plates (MSD), and incubated overnight at room temperature, shaking at 500 rpm on an orbital shaker.
On day two, compounds diluted in DMSO were added to the cells in duplicate plates at 9 different concentrations with half-log intervals, plus DMSO only control, alongside a reference compound serving as a positive control. Final DMSO concentration was 0.5% in a volume of 200 μL per well. The compounds were allowed to incubate with the cells for 2 h at 37° C. under 5% CO2. At the end of the incubation, human M-CSF (R&D Systems) was added for 5 min to a final concentration of 50 ng/mL to stimulate CSF1R phosphorylation. Cells were lysed for 20 min, and the lysates were applied to the washed, FK506-coated MSD plates, and incubated overnight at 4° C. shaking at 500 rpm.
On day three, the MSD plates were washed, and the captured CSF1R-FKBP was assayed sequentially for phosphorylation using mouse anti-phosphotyrosine antibody (Millipore) and Sulfo-TAG goat anti-mouse IgG antibody (MSD), and detected on a Sector Imager 6000 instrument (MSD).
A single IC50 value for each compound was determined by averaging the IC50s of the duplicates calculated using Igor Pro 6 software, and represents the compound concentration that achieves a 50% inhibition of ligand-induced CSF1R phosphorylation compared to DMSO control.

KIT = target: T2, KIT (Homo sapiens, UniProt P10721); assay: Competition binding assay, KIT Kd
T2 construct: made in house
Method: (§1) Competition binding assays used herein were developed, validated and performed as described in Fabian et al., Nature Biotechnology 2005, 23, 329-336. Kinases were produced as fusions to T7 phage (See, Fabian et al. or WO04/015142) or alternatively, the kinases were expressed in HEK-293 cells and subsequently tagged with DNA for PCR detection (See, WO08/005310). For the binding assays, streptavidin-coated magnetic beads were treated with biotinylated affinity ligands for 30 min at room temperature to generate affinity resins. The liganded beads were blocked with excess biotin and washed with blocking buffer (SeaBlock (Pierce), 1% BSA, 0.05% Tween 20, 1 mM DTT) to remove unbound ligand and to reduce non-specific binding. Binding reactions were assembled by combining kinase, liganded affinity beads, and test compounds in 1× binding buffer (20% SeaBlock, 0.17×PBS, 0.05% Tween 20, 6 mM DTT). Test compounds were prepared as 100× stocks in DMSO and diluted into the aqueous environment. Kds were determined using an eleven point threefold serial dilutions. DMSO or control compounds were was added to control assays lacking a test compound. Primary screen assays were performed in polypropylene 384-well plates in a final volume of 20-40 μL, while Kd determinations were performed in polystyrene 96-well plates in a final volume of 135 μL. The assay plates were incubated at room temperature with shaking for 1 hour to allow the binding reactions to reach equilibrium, and the affinity beads were washed extensively with wash buffer (1×PBS, 0.05% Tween 20) to remove unbound protein. The beads were then resuspended in elution buffer (1×PBS, 0.05% Tween […] non-biotinylated affinity ligand) and incubated at room temperature with shaking for 30 min. The kinase concentration in the eluates was measured by quantitative PCR.

CSF1R [2] = target: T1, CSF1R; assay: Competition binding assay, CSF1R Kd; set-up: made in house
Method: as §1

FLT3 = target: T3, FLT3 (Homo sapiens, UniProt P36888); assay: Competition binding assay, FLT3 Kd
T3 construct: made in house
T3 sequence (P36888 27-993): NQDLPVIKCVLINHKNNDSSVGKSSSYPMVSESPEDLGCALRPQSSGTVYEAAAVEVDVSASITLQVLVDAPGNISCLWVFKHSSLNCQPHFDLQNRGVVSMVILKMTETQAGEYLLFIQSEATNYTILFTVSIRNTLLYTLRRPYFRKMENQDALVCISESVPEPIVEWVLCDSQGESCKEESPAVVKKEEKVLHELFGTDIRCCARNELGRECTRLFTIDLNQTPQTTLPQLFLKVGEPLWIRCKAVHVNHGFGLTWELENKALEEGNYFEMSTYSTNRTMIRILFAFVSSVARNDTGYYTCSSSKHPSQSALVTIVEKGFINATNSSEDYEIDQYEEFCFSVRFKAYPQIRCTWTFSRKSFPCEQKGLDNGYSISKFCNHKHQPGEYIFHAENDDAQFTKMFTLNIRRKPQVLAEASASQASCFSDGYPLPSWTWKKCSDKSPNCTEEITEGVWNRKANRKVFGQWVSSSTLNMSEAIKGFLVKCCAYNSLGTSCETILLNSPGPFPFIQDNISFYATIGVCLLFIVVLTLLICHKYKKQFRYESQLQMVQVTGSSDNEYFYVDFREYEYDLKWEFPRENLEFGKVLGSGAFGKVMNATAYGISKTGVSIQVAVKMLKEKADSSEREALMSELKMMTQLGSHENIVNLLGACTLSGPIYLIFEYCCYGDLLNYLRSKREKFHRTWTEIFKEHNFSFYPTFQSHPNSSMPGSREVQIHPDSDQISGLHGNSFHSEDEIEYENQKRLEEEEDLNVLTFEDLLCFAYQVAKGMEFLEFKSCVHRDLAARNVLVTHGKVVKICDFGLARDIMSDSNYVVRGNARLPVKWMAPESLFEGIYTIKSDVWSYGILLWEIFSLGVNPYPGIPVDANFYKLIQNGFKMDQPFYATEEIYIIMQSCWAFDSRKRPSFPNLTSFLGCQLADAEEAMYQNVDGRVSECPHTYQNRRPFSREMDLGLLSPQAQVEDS
Method: as §1

PDGFRβ = target: T4, PDGFRβ (Homo sapiens, UniProt P09619); assay: Competition binding assay, PDGFRβ Kd
T4 construct: made in house
Method: as §1

M-NFS-60 cells = assay: M-NFS-60 cell proliferation assay (Alamar Blue); type: cell-based, mouse; settings: Mus musculus, read-out: CSF1R M-NFS-60 CTB:IC50
Method: The compounds disclosed herein were tested in an M-NFS-60 cell proliferation assay to determine their cellular potency against CSF1R. M-NFS-60s are mouse monocytic cells that depend on the binding of the ligand M-CSF to its receptor, CSF1R, to proliferate. Inhibition of CSF1R kinase activity will cause reduced growth and/or cell death. This assay assesses the potency of compounds as CSF1R inhibitors by measuring the reduction of Alamar Blue reagent by viable cells.
On day one of the experiment, M-NFS-60 cells were maintained in RPMI complete medium (Omega Scientific) plus 10% FBS supplemented with 20 ng/mL of M-CSF (R&D Systems). 96-well TC-treated, flat bottom plates were seeded at 10,000 cell/well at a volume of 100 μL per well. The cells were cultured overnight at 37° C. under 5% CO2.
On day two, compounds were added to the cells at 9 different concentrations, with half-log intervals alongside a control reference compound serving as a positive control. Final DMSO concentration was kept at 0.5% for a final volume of 200 μL. The compounds were allowed to incubate with the cells for 72 hours at 37° C. under 5% CO2.
On day five of the experiment, 40 μl of Alamar Blue reagent was added to each well and allowed to incubate for 3 hours. Alamar Blue fluorescence was read using SoftMax Pro software at 560 nm (excitation) and 590 nm (emission). IC50s were generated as an average of duplicates and represents the concentration of test compound that achieves 50% inhibition of cellular proliferation compared to control.

[3] = 2 h compound, human M-CSF 50 ng/mL for 5 min
[4] = 72 hours incubation, M-CSF 20 ng/mL
[5] = HEK293 cells, M-CSF stimulated CSF1R phosphorylation, MSD

T4 sequence (P09619 33-1106): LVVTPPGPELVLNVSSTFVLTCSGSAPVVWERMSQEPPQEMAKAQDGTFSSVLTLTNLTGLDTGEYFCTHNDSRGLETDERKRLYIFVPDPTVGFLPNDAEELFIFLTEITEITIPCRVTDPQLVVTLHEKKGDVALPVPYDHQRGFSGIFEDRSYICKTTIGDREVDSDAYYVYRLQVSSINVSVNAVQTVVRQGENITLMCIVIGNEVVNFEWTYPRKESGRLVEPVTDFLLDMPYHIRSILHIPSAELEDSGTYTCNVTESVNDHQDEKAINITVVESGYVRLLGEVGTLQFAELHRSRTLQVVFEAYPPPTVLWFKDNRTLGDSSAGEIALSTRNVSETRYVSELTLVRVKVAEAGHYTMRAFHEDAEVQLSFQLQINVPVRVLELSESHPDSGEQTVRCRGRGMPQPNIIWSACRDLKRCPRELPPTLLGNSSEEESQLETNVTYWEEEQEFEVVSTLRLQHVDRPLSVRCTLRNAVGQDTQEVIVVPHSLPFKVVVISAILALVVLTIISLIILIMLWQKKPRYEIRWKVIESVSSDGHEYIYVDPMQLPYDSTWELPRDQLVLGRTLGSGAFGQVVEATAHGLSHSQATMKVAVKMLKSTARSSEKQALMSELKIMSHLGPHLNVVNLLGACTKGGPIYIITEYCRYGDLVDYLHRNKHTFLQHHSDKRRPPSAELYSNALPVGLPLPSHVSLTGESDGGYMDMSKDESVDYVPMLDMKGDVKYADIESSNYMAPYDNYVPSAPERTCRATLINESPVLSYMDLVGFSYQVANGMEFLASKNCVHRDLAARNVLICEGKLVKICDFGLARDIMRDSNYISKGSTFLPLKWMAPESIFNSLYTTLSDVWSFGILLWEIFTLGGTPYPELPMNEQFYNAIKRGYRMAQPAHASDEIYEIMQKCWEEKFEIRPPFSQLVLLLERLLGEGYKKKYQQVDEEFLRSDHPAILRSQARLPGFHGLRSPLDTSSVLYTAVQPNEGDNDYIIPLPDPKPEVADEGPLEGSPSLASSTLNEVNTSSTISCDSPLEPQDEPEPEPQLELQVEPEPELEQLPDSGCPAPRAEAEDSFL
T1 sequence (P07333 20-972): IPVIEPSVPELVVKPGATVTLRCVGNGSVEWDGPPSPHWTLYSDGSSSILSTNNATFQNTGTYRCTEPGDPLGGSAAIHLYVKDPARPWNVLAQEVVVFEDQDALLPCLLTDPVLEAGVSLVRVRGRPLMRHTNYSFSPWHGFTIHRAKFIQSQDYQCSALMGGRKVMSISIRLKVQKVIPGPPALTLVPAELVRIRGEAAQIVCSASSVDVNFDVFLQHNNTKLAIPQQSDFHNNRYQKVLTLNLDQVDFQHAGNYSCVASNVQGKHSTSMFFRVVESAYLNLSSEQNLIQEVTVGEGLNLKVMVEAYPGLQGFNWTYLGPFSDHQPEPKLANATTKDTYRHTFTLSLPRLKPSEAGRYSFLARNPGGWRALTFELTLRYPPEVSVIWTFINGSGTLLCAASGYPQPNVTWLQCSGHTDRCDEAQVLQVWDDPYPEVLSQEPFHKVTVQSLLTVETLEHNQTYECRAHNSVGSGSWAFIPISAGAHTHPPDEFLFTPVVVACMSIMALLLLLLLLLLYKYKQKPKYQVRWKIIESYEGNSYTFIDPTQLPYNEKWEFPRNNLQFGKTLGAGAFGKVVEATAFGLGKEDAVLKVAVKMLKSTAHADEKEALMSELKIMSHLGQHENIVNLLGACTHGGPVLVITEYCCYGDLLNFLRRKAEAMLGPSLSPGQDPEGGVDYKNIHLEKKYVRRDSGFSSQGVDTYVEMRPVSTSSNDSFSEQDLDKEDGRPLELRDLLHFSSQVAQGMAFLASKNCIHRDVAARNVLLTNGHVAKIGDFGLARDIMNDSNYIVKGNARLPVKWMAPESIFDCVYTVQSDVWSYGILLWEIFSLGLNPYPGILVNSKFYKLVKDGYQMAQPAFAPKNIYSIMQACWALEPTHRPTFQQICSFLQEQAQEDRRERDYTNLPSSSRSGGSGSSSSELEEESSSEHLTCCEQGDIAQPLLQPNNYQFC
T2 sequence (P10721 26-976): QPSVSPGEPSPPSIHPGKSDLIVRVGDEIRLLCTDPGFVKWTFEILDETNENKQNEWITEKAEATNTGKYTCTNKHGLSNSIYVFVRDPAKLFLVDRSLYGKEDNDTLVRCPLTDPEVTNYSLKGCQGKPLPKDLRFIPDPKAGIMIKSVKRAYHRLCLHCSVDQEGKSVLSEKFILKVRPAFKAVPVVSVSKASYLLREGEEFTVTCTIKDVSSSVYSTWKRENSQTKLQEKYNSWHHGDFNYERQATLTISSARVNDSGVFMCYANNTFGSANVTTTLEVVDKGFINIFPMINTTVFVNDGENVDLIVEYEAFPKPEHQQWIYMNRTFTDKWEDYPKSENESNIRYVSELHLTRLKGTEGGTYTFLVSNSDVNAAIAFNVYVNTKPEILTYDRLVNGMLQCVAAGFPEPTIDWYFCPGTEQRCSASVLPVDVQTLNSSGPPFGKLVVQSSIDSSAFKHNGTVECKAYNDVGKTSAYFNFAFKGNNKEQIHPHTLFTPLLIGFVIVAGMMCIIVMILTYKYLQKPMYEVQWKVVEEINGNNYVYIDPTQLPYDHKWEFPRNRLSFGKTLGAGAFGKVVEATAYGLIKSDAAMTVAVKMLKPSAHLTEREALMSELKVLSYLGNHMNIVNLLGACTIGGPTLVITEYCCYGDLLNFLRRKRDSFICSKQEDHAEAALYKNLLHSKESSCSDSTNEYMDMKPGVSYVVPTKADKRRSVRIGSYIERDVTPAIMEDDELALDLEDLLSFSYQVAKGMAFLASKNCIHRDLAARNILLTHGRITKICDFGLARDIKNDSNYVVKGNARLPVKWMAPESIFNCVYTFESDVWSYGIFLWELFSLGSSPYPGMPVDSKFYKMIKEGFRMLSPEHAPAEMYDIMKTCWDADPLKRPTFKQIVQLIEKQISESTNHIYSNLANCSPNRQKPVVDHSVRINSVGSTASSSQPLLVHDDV

| IC50 (CSF1R [1]; [3]) | Kd (KIT) | Kd (CSF1R [2]) | Kd (FLT3) | Kd (PDGFRβ) | IC50 (CSF1R [1]; [5]) | Kd (KIT; competition binding) | Kd (CSF1R [2]; competition binding) | Kd (FLT3; competition binding) | Kd (PDGFRβ; competition binding) | Structure (SMILES) | IC50 (M-NFS-60 cells; [4]) | IC50 (M-NFS-60 cells; M-NFS-60 cell proliferation) |
| --- | --- | --- | --- | --- | --- | --- | --- | --- | --- | --- | --- | --- |
| ≤ 50 nM | 100 to 500 nM | 5 to 20 nM | 200 to 1000 nM | 50 to 500 nM |  |  |  |  |  | COc1cc2ncn(Cc3ccc4nc(N[C@@H]5CCCCC5O)sc4c3)c2cc1OC (stereo in doubt) [Example 2, (1R,2R)-2-((6-((5,6-dimethoxy-1H-benzo[d]imidazol-1-yl)methyl)benzo[d]thiazol-2-yl)amino)cyclohexanol] | 50 to 400 nM |  |
| > 500 nM | > 2000 nM | > 50 nM | 1000 to 5000 nM | 500 to 2000 nM |  |  |  |  |  | COc1cc2ncn(Cc3ccc4nc(NCCN5CCOCC5)sc4c3)c2cc1OC [Example 14, 6-((5,6-dimethoxy-1H-benzo[d]imidazol-1-yl)methyl)-N-(2-morpholinoethyl)benzo[d]thiazol-2-amine] | > 1500 nM |  |
| 50 to 200 nM | ≤ 100 nM | ≤ 5 nM | 200 to 1000 nM | 50 to 500 nM |  |  |  |  |  | CC(=O)c1ccc2ncn(Cc3ccc4nc(N[C@@H]5CCCC[C@H]5O)sc4c3)c2n1 [Example 88, 1-(3-((2-(((1R,2R)-2-hydroxycyclohexyl)amino)benzo[d]thiazol-6-yl)methyl)-3H-imidazo[4,5-b]pyridin-5-yl)ethanone] | ≤ 50 nM |  |
|  |  |  |  |  | 50 to 200 nM | ≤ 100 nM | ≤ 5 nM | 200 to 1000 nM | ≤ 50 nM | O[C@H]1CCCCC1Nc1nc2ccc(Cn3cnc4cc(F)cnc43)cc2s1 (stereo in doubt) [Example 213, (1S,2S)-2-((6-((6-fluoro-3H-imidazo[4,5-b]pyridin-3-yl)methyl)benzo[d]thiazol-2-yl)amino)cyclohexanol] |  | 50 to 400 nM |
| 50 to 200 nM | ≤ 100 nM | 5 to 20 nM | 1000 to 5000 nM | ≤ 50 nM |  |  |  |  |  | CN(C)C(=O)c1cnc2c(c1)ncn2Cc1ccc2nc(N[C@@H]3CCCC[C@H]3O)sc2c1 [Example 92, 3-((2-(((1R,2R)-2-hydroxycyclohexyl)amino)benzo[d]thiazol-6-yl)methyl)-N,N-dimethyl-3H-imidazo[4,5-b]pyridine-6-carboxamide] | 50 to 400 nM |  |
| 200 to 500 nM | 500 to 2000 nM | 5 to 20 nM | 1000 to 5000 nM | 500 to 2000 nM |  |  |  |  |  | COc1cc2ncn(Cc3ccc4nc(NC[C@H]5CCCO5)sc4c3)c2cc1OC [Example 8, (R)-6-((5,6-dimethoxy-1H-benzo[d]imidazol-1-yl)methyl)-N-((tetrahydrofuran-2-yl)methyl)benzo[d]thiazol-2-amine] | > 1500 nM |  |
| 50 to 200 nM | 100 to 500 nM | ≤ 5 nM | 1000 to 5000 nM | ≤ 50 nM |  |  |  |  |  | O[C@@H]1Cc2ccccc2[C@H]1Nc1nc2ccc(Cn3cnc4cc(F)cnc43)cc2s1 [Example 69, (1R,2R)-1-((6-((6-fluoro-3H-imidazo[4,5-b]pyridin-3-yl)methyl)benzo[d]thiazol-2-yl)amino)-2,3-dihydro-1H-inden-2-ol] | 50 to 400 nM |  |
| ≤ 50 nM | ≤ 100 nM | 5 to 20 nM | ≤ 200 nM | ≤ 50 nM |  |  |  |  |  | O[C@@H]1CCCC[C@H]1Nc1nc2ccc(Cn3cnc4ccc(Br)nc43)cc2s1 [Example 78, (1R,2R)-2-((6-((5-bromo-3H-imidazo[4,5-b]pyridin-3-yl)methyl)benzo[d]thiazol-2-yl)amino)cyclohexanol] | ≤ 50 nM |  |
| 200 to 500 nM | 500 to 2000 nM | 20 to 50 nM | 1000 to 5000 nM | 500 to 2000 nM |  |  |  |  |  | COc1cc2ncn(Cc3ccc4nc(NCc5ccccn5)sc4c3)c2cc1OC [Example 9, 6-((5,6-dimethoxy-1H-benzo[d]imidazol-1-yl)methyl)-N-(pyridin-2-ylmethyl)benzo[d]thiazol-2-amine] | > 1500 nM |  |
|  |  |  |  |  | > 500 nM | 100 to 500 nM | 5 to 20 nM | > 5000 nM | 50 to 500 nM | COc1ccccc1Nc1nc2ccc(Cn3cnc4cc(F)cnc43)cc2s1 [Example 197, 6-((6-fluoro-3H-imidazo[4,5-b]pyridin-3-yl)methyl)-N-(2-methoxyphenyl)benzo[d]thiazol-2-amine] |  | 400 to 1500 nM |
